The values that follow come from patent US6821927B1 (priority 1999, dated 2004).

The nature of this series: log P determination by HPLC (EEC directive 79/831 Annex V. A8). The class given is physicochemical.
Where [1] appears, read: HPLC, gradient method, acetonitrile/0.1% aqueous phosphoric acid.

As for `CON=C(C(=O)N(C)O)c1ccccc1Oc1ncnc(Oc2ccccc2F)c1F` [Example 4], under setting [1], the chromatographic logP (usually lipophilicity estimated from chromatographic retention) was determined as 2.66.

Regarding `CON=C(C(=O)N(C)O)c1ccccc1Oc1ncnc(Oc2ccccc2C#N)c1F` [Example 8], the chromatographic logP under setting [1] came to 2.43.

In turn, `CON=C(C(=O)N(C)OC(C)=O)c1ccccc1Oc1ncnc(Oc2ccccc2Cl)c1F` [Example 3, N-(Acetyloxy)-2-(2-{[6-(2-chlorophenoxy)-5-fluoro-4-pyrimidinyl]oxy}phenyl)-2-(methoxyimino)-N-methylacetamide] displayed a chromatographic logP (HPLC (gradient method)) of 3.52.

Under setting [1], `CON=C(C(=O)N(C)OC)c1ccccc1Oc1ncnc(Oc2ccccc2Cl)c1F` [Example 9] displayed a chromatographic logP of 3.5.

`CON=C(C(=O)NO)c1ccccc1Oc1ncnc(Oc2ccccc2Cl)c1F` [Example 2, 2-(2-{[6-(2-Chlorophenoxy)-5-fluoro-4-pyrimidinyl]oxy}phenyl)-N-hydroxy-2-(methoxyimino)-acetamide] came in with a chromatographic logP (HPLC) of 2.56.

As to `CON=C(C(=O)N(C)O)c1ccccc1Oc1ncnc(Oc2cccc(Cl)c2Cl)c1F` [Example 7], the chromatographic logP under setting [1] was determined as 3.22.

Molecule `CON=C(C(=O)N(C)O)c1ccccc1Oc1ncnc(Oc2cc(Cl)ccc2Cl)c1F` [Example 6] had a chromatographic logP under setting [1] of 3.28.

In the case of `CON=C(C(=O)N(C)O)c1ccccc1Oc1ncnc(Oc2ccccc2Cl)c1F` [Example 1], the logP (commonly a log measure of how a compound divides between an organic and an aqueous phase) (HPLC) worked out at 2.82.

For the molecule `CON=C(C(=O)OC)c1ccccc1Oc1ncnc(Oc2ccccc2Cl)c1F` [Example (VI-1), Methyl 2-{2-[6-(2-chlorophenoxy)-5-fluoro-pyrimidin-4-yloxy]-phenyl}-2-methoxyiminoacetate], where the note is “HPLC”, the chromatographic logP was determined as 3.61.

As to `CON=C(C(=O)N(C)O)c1ccccc1Oc1ncnc(Oc2cccc(Cl)c2C)c1F` [Example 5], the chromatographic logP under setting [1] worked out at 3.29.
